Experimental data as given in patent US12329757B2, “Methods for increasing sepiapterin plasma exposure” (PTC Therapeutics MP, Inc., priority 2018, dated 2025).
Like-named read-outs stand apart in the source and are kept apart here.

Tests used:
[1] = Food effect on administration of sepiapterin: plasma concentrations of BH4 and sepiapterin in fasted and fed subjects; format: in vivo; conditions: sepiapterin 10 mg/kg oral
Description: Method: Subjects received 2 oral doses of sepiapterin (10 mg/kg) separated by 1 week in a fasted and fed state. Subjects were fed a standard high-fat (approximately 50 percent of total caloric content of the meal) and high-calorie (approximately 800 to 1000 calories) meal starting 30 minutes prior to receiving their second oral dose of sepiapterin on Day 8.
Sampling for PK analysis occurred predose on Days 1 and 8 (within 30 minutes before dosing) and 0.5 hr, 1 hr, 2 hr, 4 hr, 8 hr, 12 hr, and 24 hr after the doses on Days 1 and 8. The blood concentrations of sepiapterin and BH4 were analyzed by MNG Labs.

[2] = Pharmacokinetic parameters for BH4 after single dose of sepiapterin or BH4 in fasted subjects; format: in vivo
Description: Six subjects received sepiapterin in each group and three subjects received BH4 in each group where this treatment was administered. Table 5. Summary of pharmacokinetic parameters for BH4 after administration of single dose of sepiapterin or BH4 in fasted subjects.
Values shown are means of plasma concentrations of BH4 following administration at the doses shown.

[3] = fasted vs fed prior to administration

Sepiapterin Concentration in Plasma, Mean ([1]; fasted, 0 h (predose)): 0 nM | Sepiapterin Concentration in Plasma, Median ([1]; fasted, 0 h (predose)): 0 nM | concentration at 24 h ([1]; fasted, 0 h (predose), read-out: Sepiapterin Concentration in Plasma, Maximum): 0 nM | concentration at 2 h ([1]; fasted, 0 h (predose), read-out: Sepiapterin Concentration in Plasma, Minimum): 0 nM | Sepiapterin Concentration in Plasma, Mean ([1]; fasted, 8 h): 0 nM | Sepiapterin Concentration in Plasma, Median ([1]; fasted, 8 h): 0 nM | concentration at 2 h ([1]; fasted, 8 h, read-out: Sepiapterin Concentration in Plasma, Minimum): 0 nM | Sepiapterin Concentration in Plasma, Mean ([1]; fasted, 12 h): 0 nM | Sepiapterin Concentration in Plasma, Median ([1]; fasted, 12 h): 0 nM | concentration at 2 h ([1]; fasted, 12 h, read-out: Sepiapterin Concentration in Plasma, Minimum): 0 nM | Sepiapterin Concentration in Plasma, Mean ([1]; fasted, 24 h): 0 nM | Sepiapterin Concentration in Plasma, Median ([1]; fasted, 24 h): 0 nM | concentration at 2 h ([1]; fasted, 24 h, read-out: Sepiapterin Concentration in Plasma, Minimum): 0 nM | Sepiapterin Concentration in Plasma, Mean ([1]; fed, 0 h (predose)): 0 nM | Sepiapterin Concentration in Plasma, Median ([1]; fed, 0 h (predose)): 0 nM | concentration at 24 h ([1]; fed, 0 h (predose), read-out: Sepiapterin Concentration in Plasma, Maximum): 0 nM | Sepiapterin Concentration in Plasma, Median ([1]; fed, 0.5 h): 0 nM | concentration at 2 h ([1]; fed, 0.5 h, read-out: Sepiapterin Concentration in Plasma, Minimum): 0 nM | concentration at 2 h ([1]; fed, 4 h, read-out: Sepiapterin Concentration in Plasma, Minimum): 0 nM | Sepiapterin Concentration in Plasma, Median ([1]; fed, 8 h): 0 nM | concentration at 2 h ([1]; fed, 8 h, read-out: Sepiapterin Concentration in Plasma, Minimum): 0 nM | Sepiapterin Concentration in Plasma, Mean ([1]; fed, 12 h): 0 nM | Sepiapterin Concentration in Plasma, Median ([1]; fed, 12 h): 0 nM | concentration at 24 h ([1]; fed, 12 h, read-out: Sepiapterin Concentration in Plasma, Maximum): 0 nM | concentration at 2 h ([1]; fed, 12 h, read-out: Sepiapterin Concentration in Plasma, Minimum): 0 nM | Sepiapterin Concentration in Plasma, Mean ([1]; fed, 24 h): 0 nM | Sepiapterin Concentration in Plasma, Median ([1]; fed, 24 h): 0 nM | concentration at 24 h ([1]; fed, 24 h, read-out: Sepiapterin Concentration in Plasma, Maximum): 0 nM | concentration at 2 h ([1]; fed, 24 h, read-out: Sepiapterin Concentration in Plasma, Minimum): 0 nM | concentration at 0.5 h ([1]; human, plasma, fasted, 0.5 h, read-out: Sepiapterin Concentration in Plasma, Minimum): 0 nM | concentration at 4 h ([1]; human, plasma, fasted, 4 h, read-out: Sepiapterin Concentration in Plasma, Minimum): 0 nM | concentration at 8 h ([1]; human, plasma, fasted, 8 h, read-out: Sepiapterin Concentration in Plasma, Maximum): 0 nM | concentration at 12 h ([1]; human, plasma, fasted, 12 h, read-out: Sepiapterin Concentration in Plasma, Maximum): 0 nM | concentration at 24 h ([1]; human, plasma, fasted, 24 h, read-out: Sepiapterin Concentration in Plasma, Maximum): 0 nM | concentration at 0 h ([1]; human, plasma, fed, 0 h (predose), read-out: Sepiapterin Concentration in Plasma, Minimum): 0 nM | concentration at 1 h ([1]; human, plasma, fed, 1 h, read-out: Sepiapterin Concentration in Plasma, Minimum): 0 nM | concentration at 2 h ([1]; human, plasma, fed, 2 h, read-out: Sepiapterin Concentration in Plasma, Minimum): 0 nM | Cmax of BH4 in the plasma, fasted compared to fed [1, 3]: much lower | Cmax of sepiapterin in the plasma, fasted compared to fed [1, 3]: much higher | AUC0-24 of BH4, sepiapterin compared to BH4 administration [2]: much higher | AUC0-inf of BH4, sepiapterin compared to BH4 administration [2]: much higher
SMILES: C[C@H](O)C(=O)C1=Nc2c(nc(N)[nH]c2=O)NC1 [sepiapterin, Sepiapterin]
